Marks after values point to notes of the source that are not given here.
Tests used:
MA-treated mice [1] = assay: MA-induced FRA-IR in the striatum; details: morphinan 20 mg/kg i.p.; MA 1 mg/kg i.p./day x 7
Protocol: Therefore, brains were removed and used for immunocytochemical analysis at 18 h after the final cocaine/MA treatment. The coronal sections containing striatum were processed for FRA immunocytochemistry. […] The FRA antibody was used at 1:2,000 as the optimal dilution. The FRA-IR in the striatum was calculated using image analysis systems with a polaroid digital microscopic camera (Optimas version 6.2).

MPTP-treated mice [2] = assay: Striatal dopamine and metabolites (HPLC-EC) in MPTP-treated mice; details: for Concentration DA in the striatum: mean ± S.E.M., 8 animals
Protocol: Each morphinan was administered 30 min prior to every injection of MPTP for last three days (from day 4th to day 7th). Animals were sacrificed 24 h after the last MPTP treatment.
Brains were rapidly removed and cut into 1 mm coronal sections on ice. The striatum was punched using a fine pasteur pipette (3, 21, 22), and stored at −70° C. DA and its metabolites, 3,4-dihydroxyphenylacetic acid (DOPAC) and homovanilic acid (HVA) were measured by HPLC-eletrochemical detection (3, 21, 22). Briefly, the striatum was homogenized in 0.2 M perchloric acid containing 3,4-dihydroxybenzylamine as an internal standard (10 mg wet weight of tissue per ml). The homogenate was centrifuged and a 20-μl aliquot of the supernatant was injected into the HPLC equipped with an ODS-C18 column. The mobile phase was comprised of 26 ml of acetonitrile, 21 ml of tetrahydrofuran and 960 ml of 0.15 M monochloroacetic acid (pH 3.0) containing 50 mg/l of EDTA and 200 mg/l of sodium octyl sulfate. The amount of DA, DOPAC and HVA were determined by comparison of peak height ratio of tissue sample with standards, and were expressed in nanograms per 100 mg of wet weight of tissue.
Each morphinan was administered 30 min before every injection of MPTP for last three days. Animals were sacrificed at 24 h after the last MPTP injection.

LPS-treated mice [3] = assay: Striatal dopamine and metabolites in LPS-treated mice; assay type: in vivo; details: for Concentration DA in the striatum: 3 weeks after LPS
Text: Control animals received striatal injection with PBS.
Mice were sacrificed at 3 weeks after LPS treatment.

MA-treated mice [4] = assay: MA-induced behavioural sensitization; details: morphinan 20 mg/kg i.p., last 3 days of wash-out (Ex. 3.12)
Protocol: Morphinans (20 mg/kg, i.p.) were administered last 3 days of wash-out period.

MA-treated mice [5] = assay: Nigral TH-IR in MA-treated mice; details: 24 mg/kg i.p.
cocaine-treated mice [6] = assay: Cocaine-induced Fos-related antigen-immunoreactivity (FRA-IR) in the striatum; details: cocaine 5 mg/kg; morphinan 20 mg/kg i.p.
σ1 receptors = σ1 receptors (Homo sapiens, UniProt Q99720); details: cited from earlier work
MA-treated mice [7] = assay: MA-induced hyperlocomotion; assay type: in vivo; details: morphinan 20 mg/kg i.p. 30 min before MA 1 mg/kg i.p./day x 7
Protocol: FIGS. 39A-39D show effect of morphinans on the MA-induced hyperactivity in the mice. Each morphinan (20 mg/kg, i.p.) was administered 30 minutes prior to MA (1 mg/kg, i.p.). All treatments were performed for 7 days.

C57 BL/6 mice [8] = assay: Conditioned place preference (psychological dependence) following repeated administration of morphinans or PCP; assay type: in vivo; details: 20 or 40 mg/kg i.p. (PCP 2.5 or 5 mg/kg); vs saline
Protocol: On day 14, the guillotine doors were raised. […] Data were analyzed between 0900 and 1700 hr.

cocaine-treated mice [9] = assay: Cocaine-induced hyperlocomotion; assay type: in vivo; details: for effect on locomotor activity induced by low dose of cocaine: cocaine 5 mg/kg i.p. x 7 days, morphinan 15 or 30 mg/kg (DF 20 mg/kg) i.p.; for effect on hyperactivity induced by high dose of cocaine: cocaine 20 mg/kg i.p. x 7 days, morphinan 15 or 30 mg/kg i.p. 30 min before
Protocol: FIGS. 34A-34B show effect of morphinans on the cocaine-induced hyperactivity in the mice. Morphinans (15 and 30 mg/kg, i.p.) were administered 30 minutes prior to cocaine (5 and 20 mg/kg, i.p.). Central activity means relatively non-specific locomotor activity in the center of the box. Marginal activity means circling behaviors. All treatments were performed for 7 days.
FIGS. 35A-35D show effect of dimemorfan (DF) on cocaine-induced hyperactivity in the mice. DF (20 mg/kg, i.p.) was administered 30 minutes prior to cocaine (5 and 20 mg/kg, i.p.). All treatments were performed for 7 days.

MA-treated mice [10] = assay: Hypokinesia induced by MA; assay type: in vivo; details: 12 and 24 mg/kg; 3 days after final MA
[11] = system: kainate or maximal electric shock; details: kainate (24) or maximal electric shock (27); cited from earlier work
MA-treated mice [12] = assay: Striatal dopamine and metabolites in MA-treated mice; assay type: in vivo; details: for Concentration DA in the striatum: 3 days after final MA
Text: Mice were sacrificed at 3 days after final MA injection.

C57 BL/6 mice [13] = assay: Locomotor activity and locomotor pattern following repeated administration of morphinans or PCP; assay type: in vivo; details: for locomotor pattern (tracings): 40 mg/kg i.p. (PCP 5 mg/kg), FIG. 3; for marginal activity (circling behaviour; absolute turn angular): 20 or 40 mg/kg i.p./day x 7 (PCP 2.5 or 5 mg/kg), 3-min period; for marginal activity (circling behaviour; absolute turn angular) / locomotor activity (total distance moved): vs saline; for locomotor activity (total distance moved): 20 or 40 mg/kg i.p./day x 7 days, 30 min after final treatment
MA-treated mice [14] = assay: Methamphetamine (MA)-induced hyperthermia; assay type: in vivo; details: 24 mg/kg; MA 7.5 mg/kg i.p. x 4 at 2-h intervals
Protocol: Rectal temperature was recorded at 40 min after each MA treatment. […] Mice were sacrificed at 3 days after final MA injection.
FIGS. 10A-10B show effect of morphinans on the methamphetamine (MA)-induced hyperthermia. Mice received i.p. injections of MA (four injections of 7.5 mg/kg each) at 2-h intervals under the ambient temperature of 22.0±0.5° C. Temperatures were recorded at 40 min after each MA treatment (Arrow=MA injection).

LPS-treated mice [15] = assay: Hypokinesia induced by intrastriatal LPS; details: 12 or 24 mg/kg, twice before bilateral intrastriatal LPS
MPTP-treated mice [16] = assay: Hypokinesia (reduction in locomotor activity) induced by MPTP; assay type: in vivo; details: 12 or 24 mg/kg i.p. 30 min before MPTP (20 mg/kg/day x 7), last three days
[17] = system: NMDA receptor associated PCP sites; details: cited from earlier work
CB1 receptor = CB1 receptor (Rattus norvegicus, UniProt P20272); assay type: biochemical
Chain of CB1 receptor (P20272 whole entry): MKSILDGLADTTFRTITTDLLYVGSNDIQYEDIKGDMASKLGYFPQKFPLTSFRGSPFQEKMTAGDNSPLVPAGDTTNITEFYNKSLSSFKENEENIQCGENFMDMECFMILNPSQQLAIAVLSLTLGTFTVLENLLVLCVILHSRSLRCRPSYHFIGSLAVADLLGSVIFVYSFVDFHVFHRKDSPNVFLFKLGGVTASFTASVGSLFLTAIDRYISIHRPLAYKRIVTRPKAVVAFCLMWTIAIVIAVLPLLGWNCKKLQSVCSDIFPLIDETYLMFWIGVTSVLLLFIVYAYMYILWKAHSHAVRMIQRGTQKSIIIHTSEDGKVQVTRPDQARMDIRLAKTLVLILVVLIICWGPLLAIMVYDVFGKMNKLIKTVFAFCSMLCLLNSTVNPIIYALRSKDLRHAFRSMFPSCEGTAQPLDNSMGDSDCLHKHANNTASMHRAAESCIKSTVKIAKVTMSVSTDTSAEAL

Chain of σ1 receptors (Q99720 whole entry): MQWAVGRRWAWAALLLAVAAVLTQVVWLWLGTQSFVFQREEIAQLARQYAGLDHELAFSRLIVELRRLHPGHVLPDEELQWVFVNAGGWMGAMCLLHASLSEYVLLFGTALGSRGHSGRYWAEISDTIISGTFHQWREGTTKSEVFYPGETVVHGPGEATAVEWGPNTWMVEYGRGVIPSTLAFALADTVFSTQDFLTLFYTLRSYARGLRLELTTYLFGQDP

C=CCOc1ccc2c(c1)[C@@]13CCCC[C@H]1[C@@H](C2)N(C)CC3 [AM, 3-allyloxy-17-methylmorphinan]
effect on MA-induced FRA-IR in the striatum (MA-treated mice [1]): apparently attenuated
effect on MPTP-induced reductions in striatal DA, DOPAC and HVA (MPTP-treated mice [2]; 24 mg/kg pretreatment): did not alter reductions in DA, DOPAC and HVA
Concentration DOPAC in the striatum (MPTP-treated mice [2]; morphinan 12 (mg/kg) + MPTP): 54 ± 6 ng/100 mg wet tissue
Concentration HVA in the striatum (MPTP-treated mice [2]; morphinan 12 (mg/kg) + MPTP): 69 ± 5 ng/100 mg wet tissue
Concentration DA in the striatum (MPTP-treated mice [2]; morphinan 12 (mg/kg) + MPTP): 468 ± 52 ng/100 mg wet tissue
Concentration DOPAC in the striatum (MPTP-treated mice [2]; morphinan 24 (mg/kg) + MPTP): 66 ± 8 ng/100 mg wet tissue
Concentration HVA in the striatum (MPTP-treated mice [2]; morphinan 24 (mg/kg) + MPTP): 78 ± 7 ng/100 mg wet tissue
Concentration DA in the striatum (MPTP-treated mice [2]; morphinan 24 (mg/kg) + MPTP): 539 ± 64 ng/100 mg wet tissue
effect on LPS-induced reductions in striatal DA, DOPAC and HVA (LPS-treated mice [3]; 24 mg/kg pretreatment): did not alter LPS-induced reductions in DA, DOPAC and HVA levels
Concentration DOPAC in the striatum (LPS-treated mice [3]; morphinan 12 (mg/kg) + LPS): 64 ± 8 ng/100 mg wet tissue
Concentration HVA in the striatum (LPS-treated mice [3]; morphinan 12 (mg/kg) + LPS): 75 ± 6 ng/100 mg wet tissue
Concentration DA in the striatum (LPS-treated mice [3]; morphinan 12 (mg/kg) + LPS, mean ± S.E.M., 8 animals): 454 ± 55 ng/100 mg wet tissue
Concentration DOPAC in the striatum (LPS-treated mice [3]; morphinan 24 (mg/kg) + LPS): 66 ± 7 ng/100 mg wet tissue
Concentration HVA in the striatum (LPS-treated mice [3]; morphinan 24 (mg/kg) + LPS): 70 ± 8 ng/100 mg wet tissue
Concentration DA in the striatum (LPS-treated mice [3]; morphinan 24 (mg/kg) + LPS): 452 ± 49 ng/100 mg wet tissue
effect on MA-induced behavioural sensitization (MA-treated mice [4]): significantly reduced
effect on MA-induced decrease in nigral TH-positive cells (MA-treated mice [5]): significantly attenuated the decrease in TH-positive cells
effect on cocaine-induced FRA-IR in the striatum (cocaine-treated mice [6]): apparently attenuated
affinity for σ1 receptors (σ1 receptors): high affinity ligands
effect on MA-induced hyperlocomotion (MA-treated mice [7]): consistently effective in attenuating hyperlocomotion induced by MA
conditioned place preference (CPP) (C57 BL/6 mice [8]): almost no CPP effects
effect on locomotor activity induced by low dose of cocaine (cocaine-treated mice [9]): consistently attenuated locomotor activity induced by a low dose of cocaine
effect on hyperactivity induced by high dose of cocaine (cocaine-treated mice [9]): not uniform
effect on MA-induced reduction in locomotor activity (MA-treated mice [10]): significantly prevented MA-induced reduction in locomotor activity
anticonvulsant effect [11]: exhibited anticonvulsant effects
effect on MA-induced reductions in striatal DA, DOPAC and HVA (MA-treated mice [12]; 24 mg/kg pretreatment): significantly protected
Concentration DOPAC in the striatum (MA-treated mice [12]; morphinan 12 (mg/kg) + MA): 89 ± 9 ng/100 mg wet tissue
Concentration HVA in the striatum (MA-treated mice [12]; morphinan 12 (mg/kg) + MA): 79 ± 9 ng/100 mg wet tissue
Concentration DA in the striatum (MA-treated mice [12]; morphinan 12 (mg/kg) + MA, mean ± S.E.M., 8 animals): 601 ± 62 ng/100 mg wet tissue
Concentration DOPAC in the striatum (MA-treated mice [12]; morphinan 24 (mg/kg) + MA): 96 ± 10^b ng/100 mg wet tissue
Concentration HVA in the striatum (MA-treated mice [12]; morphinan 24 (mg/kg) + MA): 92 ± 10^b ng/100 mg wet tissue
Concentration DA in the striatum (MA-treated mice [12]; morphinan 24 (mg/kg) + MA): 749 ± 64^b ng/100 mg wet tissue
locomotor pattern (tracings) (C57 BL/6 mice [13]): did not produce significant marginal activity
marginal activity (circling behaviour; absolute turn angular) (C57 BL/6 mice [13]): did not significantly affect marginal activity
locomotor activity (total distance moved) (C57 BL/6 mice [13]): appeared to increase locomotor activity slightly
effect on MA-induced hyperthermia (rectal temperature) (MA-treated mice [14]): attenuated by all morphinans used in this study
effect on LPS-induced decrease in locomotor activity (LPS-treated mice [15]): neither AM nor DF were effective in attenuating locomotor hypoactivity
effect on MPTP-induced reduction in locomotor activity (MPTP-treated mice [16]): neither AM nor DF affected significantly the locomotor hypoactivity
affinity for NMDA receptor associated PCP sites [17]: very low affinities

CCCCCCC(C)(C)c1ccc([C@@H]2C[C@H](O)CC[C@H]2CCCO)c(O)c1 [CP55,940, [1α, 2β-(R)-5α]-(−)-5-(1,1-dimethyl)-2-[5-hydroxy-2-(3-hydroxypropyl)cyclohexyl-phenol], reference compound]
stimulation of GTP γS binding (CB1 receptor): about 120%

CN1CC[C@]23CCCC[C@H]2[C@H]1Cc1ccc(O)cc13 [DX, 3-hydroxy-17-methylmorphinan, reference compound]
affinity for σ1 receptors (σ1 receptors): high affinity ligands
conditioned place preference (CPP) (C57 BL/6 mice [8]): produced CPP in a dose-dependent manner
locomotor pattern (tracings) (C57 BL/6 mice [13]): produced marginal activity
marginal activity (circling behaviour; absolute turn angular) (C57 BL/6 mice [13]): significant increase in marginal activity
locomotor activity (total distance moved) (C57 BL/6 mice [13]): significantly increased locomotor activity

COc1ccc2c(c1)[C@@]13CCCC[C@H]1[C@@H](C2)NCC3 [MM, 3-methoxymorphinan, reference compound]
effect on cocaine-induced FRA-IR in the striatum (cocaine-treated mice [6]): Neither DM nor MM affects this induction of FRA-IR
effect on locomotor activity induced by low dose of cocaine (cocaine-treated mice [9]): did not influence locomotor activity mediated by a low dose of cocaine
effect on hyperactivity induced by high dose of cocaine (cocaine-treated mice [9]): attenuated

c1ccc(C2(N3CCCCC3)CCCCC2)cc1 [PCP, phencyclidine, reference compound]
conditioned place preference (CPP) (C57 BL/6 mice [8]): most significant CPP
locomotor pattern (tracings) (C57 BL/6 mice [13]): produced marginal activity
marginal activity (circling behaviour; absolute turn angular) (C57 BL/6 mice [13]): much stronger stereotypies
